The source made the active and inactive calls. No rule for the calls is given here.
Tested on: Ga16-expressing cells (no TAAR1), calcium fluorescence, counterscreen
Assay: Ga16 cell calcium activation, concentration series – fluorescence, dose response, counter-screen for TAAR1 agonist project, late-stage follow-up (AID 743232)

For `Nc1nc(Nc2cccc(F)c2)nc2ccccc12`, the EC50 was > 29.9 µM (inactive).
With `CCOC(=O)C(NC(=O)CC)(N1CCc2ccccc2C1)C(F)(F)F` (stereo unspecified) the EC50 was > 29.9 µM (inactive).
In the case of `NCc1c(O)ccc2ccccc12`, the EC50 is reported as > 29.9 µM (inactive).
For `O=C(CCN1CCC(c2ccccc2)C1)c1ccc2c(c1)OCCO2` (stereo unspecified), the EC50 was > 29.9 µM (inactive).
For `O=C(CCN1CCc2ccccc2CC1)c1ccc2c(c1)OCCO2`, the EC50 was > 29.9 µM (inactive).
In the case of `Nc1nc(Nc2ccccc2)nc2ccccc12`, the EC50 is reported as > 29.9 µM (inactive).
In the case of `COc1cc(C(=O)CCN2CCC(c3ccccc3)C2)cc(OC)c1OC` (stereo unspecified), the EC50 is reported as > 29.9 µM (inactive).
`c1ccc(CCn2nnnc2C(c2cccs2)N2CCN(Cc3ccc4c(c3)OCO4)CC2)cc1` (stereo unspecified) was tested, and the EC50 was > 29.9 µM (inactive).
With `CC1(C)CCCN(C(=O)c2coc(=O)c(Br)c2)C1` the EC50 was > 29.9 µM (inactive).
In the case of `CC(=NCCc1ccccc1)C1CCOC1=O` (stereo unspecified), the EC50 is reported as > 29.9 µM (inactive).
In the case of `NC(N)=NN=Cc1c(Cl)cccc1Cl`, the EC50 is reported as > 29.9 µM (inactive).
With `c1ccc(CCN2CN(CCCN3CCOCC3)c3nc4ccccc4n3C2)cc1` the EC50 was > 29.9 µM (inactive).
`O=C(Nc1ccncc1)Nc1ccc(F)cc1` was tested, and the EC50 was > 29.9 µM (inactive).
In the case of `Cc1cc(N(C)C)nc(Nc2ccccc2)n1`, the EC50 is reported as > 29.9 µM (inactive).
`OCCNc1nc(Nc2cccc(O)c2)nc2ccccc12` was tested, and the EC50 was > 29.9 µM (inactive).
For `O=C(Nc1cccc2ccccc12)N1CCc2ccccc2C1`, the EC50 was > 29.9 µM (inactive).
For `Cc1ccc(NC(=O)CCN2CCc3ccccc3C2)cc1`, the EC50 was > 29.9 µM (inactive).
For `c1ccc2c(c1)CCN(c1nc3cc4c(cc3s1)OCO4)C2`, the EC50 was > 29.9 µM (inactive).
In the case of `O=C(Nc1cccnc1)Nc1cccc(F)c1`, the EC50 is reported as > 29.9 µM (inactive).
In the case of `NC(N)=Nc1cc2ccccc2c2ccccc12`, the EC50 is reported as > 29.9 µM (inactive).
In the case of `CCOC(=O)C(NC(C)=O)(N1CCc2ccccc2C1)C(F)(F)F` (stereo unspecified), the EC50 is reported as > 29.9 µM (inactive).
For `O=C(Nc1ccccc1)Nc1ccncc1`, the EC50 was > 29.9 µM (inactive).
For `OCCNc1nc(Nc2ccc(O)cc2)nc2ccccc12`, the EC50 was > 29.9 µM (inactive).
For `c1ccc2c3c([nH]c2c1)CCNC3`, the EC50 was > 29.9 µM (inactive).
With `O=c1[nH]cc(NCCc2ccccc2)c(=O)[nH]1` the EC50 was > 29.9 µM (inactive).
For `O=C(C(=O)N1CCc2ccccc2C1)c1cn(CC(=O)N2CCCCC2)c2ccccc12`, the EC50 was > 29.9 µM (inactive).
For `CC(=C1C(=O)c2ccccc2C1=O)N1CCc2ccccc2C1`, the EC50 was > 29.9 µM (inactive).
In the case of `O=C(CCN1CCC(c2ccccc2)C1)c1cccs1` (stereo unspecified), the EC50 is reported as > 29.9 µM (inactive).
For `Cc1cc(C)n(C(CC(=O)N2CCc3ccccc3C2)C(=O)O)n1` (stereo unspecified), the EC50 was > 29.9 µM (inactive).
For `Cc1[nH]c2ccccc2c1CN1CCc2ccccc2C1`, the EC50 was > 29.9 µM (inactive).
In the case of `O=C(CCCCl)N1CCc2[nH]c3ccccc3c2C1`, the EC50 is reported as > 29.9 µM (inactive).

Source: PubChem BioAssay AID743232 (The Scripps Research Institute Molecular Screening Center, 2013)
